Data published in patent publication US10334853B2, “Compositions and methods for treating ectoparasite infestation” (Larada Sciences, Inc., priority 2016, dated 2019).

Tested on: live parasites, most commonly a louse
Assay: Petri dish screening: drops of test formulation on live parasites
Type: in vivo
Settings: evaluation of solvents, method of Example 1
Source text: In one procedure that provides an evaluative method for determining effectiveness of commercial products, live parasites were removed from subjects' hair and placed into a Petri dish. One to two drops of test formulation were placed upon the test insect, most commonly a louse. The specimen was observed under magnification for initial movement, and was kept under observation for up to fifteen additional minutes. […] The effectiveness of the treatment was then rated on a 0-4 scale, with a score of 0 denoting total ineffectiveness and a score of 4 denoting total kill.

CCCCOC(=O)CC(C)O (stereo not shown) [Example B1, Butyl 3-hydroxybutyrate] was tested, and the “Efficacy Score” value was 0 (No elimination of live lice after 5 minutes (100% live lice remain)).
